Source: PMC8348110, “A Novel Peptide Derived from the Transmembrane Domain of Romo1 Is a Promising Candidate for Sepsis Treatment and Multidrug-Resistant Bacteria” (International Journal of Molecular Sciences, 2021)
Converted amounts (≈) assume the structure as drawn. Residues, ends and D or L forms follow the SMILES beside them.

Assays:
[1] = test system: Vancomycin-resistant S. aureus NCCP 15872; type: cell-based, Staphylococcus aureus; settings: Vancomycin-resistant NCCP 15872, 1 h
Summary of the method: (§1)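 MBC = lowest peptide concentration yielding no colonies on TS agar after overnight growth at 37 °C. Before plating, cells (5 × 10^5 CFU/mL, mid-log) were incubated 1 h with peptide, 2-fold series from 64 μg/mL, in 10 mM Na phosphate pH 7.4 plus 1% TS broth.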

[2] = test system: Methicillin-resistant S. aureus (MRSA) ATCC 33591; type: cell-based, Staphylococcus aureus
Summary of the method: as §1

[3] = test system: P. aeruginosa; settings: mouse, iv, 40 mg/kg
Procedure: Figure 4 The antibacterial activity of AMPR-22 in various physiological conditions. (A,B) Effects of AMPR-22 activity in mouse plasma and human serum. AMPR-22 was incubated with blood components for the indicated times (0, 15, 30, 60, 90, 120, 150, and 180 min) and then with P. aeruginosa or S. aureus for an hour. (C,D) Effects of AMPR-22 activity in low-density lipoprotein (LDL), high-density lipoprotein (HDL), and bovine serum albumin. AMPR-22 was incubated with blood components for the indicated times (0, 30, 60, 120, and 180 min) and then with P. aeruginosa or S. aureus for an hour. (E) Effects of AMPR-22 activity in whole blood. AMPR-22 was incubated with mouse and human whole blood for the indicated times (0, 30, 60, 90, 120, and 180 min) and then with P. aeruginosa for an hour. (F,G) The antibacterial activity of AMPR-22 in vivo. […] (F) The relative CFU in blood samples was calculated using the following formula: CFU at indicated time ÷ CFU at 0 min × 100 (%). […] The antibacterial activity was measured using a colony-forming unit assay. […]
We used the CFU counting method to measure antibacterial activity, with all bacteria cultured to the mid-log phase in an appropriate broth medium. Bacterial CFUs were counted after overnight culture at 37 °C on TS or LB agar plates. The MBC value and antibacterial activity in blood components were determined as previously described. […]

[4] = test system: HeLa cells; type: cell-based, human
Procedure: Mammalian cell viability was measured using a 3-(4,5-dimethylthiazol-2-yl)-2,5-diphenyltetrazolium bromide (MTT) assay in HeLa and HEK 293 cells. Cells were cultured on 96-well plates and incubated separately with AMPR-11, AMPR-21, AMPR-22, magainin 2, or daptomycin. After incubation for an hour, the cells were incubated with MTT solution (2 mg/mL of MTT in PBS) for an hour, and the media were removed, and dimethyl sulfoxide was added to allow the MTT formazans to solubilize. The optical density was measured using a SpectraMax Plus 384 microplate reader (Molecular Devices, San Jose, CA, USA) at 550 nm.

[5] = test system: Carbapenem-resistant P. aeruginosa (CRPA), clinical isolate; type: cell-based, Pseudomonas aeruginosa; settings: 1 h
Summary of the method: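 Mid-log clinical isolates diluted to 5 × 10^5 CFU/mL in 10 mM sodium phosphate (pH 7.4) with 1% TS broth, exposed 1 h to peptides two-fold diluted from 64 μg/mL, then plated on TS agar overnight at 37 °C. MBC is the lowest concentration with no colonies.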

[6] = test system: Staphylococcus aureus ATCC 29213; type: cell-based
Summary of the method: as §1

## CC[C@H](C)[C@H](NC(=O)CNC(=O)CNC(=O)[C@@H](NC(=O)[C@H](C)NC(=O)[C@H](CCSC)NC(=O)[C@H](Cc1ccccc1)NC(=O)[C@@H](NC(=O)CNC(=O)[C@H](Cc1ccccc1)NC(=O)[C@H](CCCCN)NC(=O)CNC(=O)CNC(=O)[C@H](CCCCN)NC(=O)[C@H](CCCCN)NC(=O)[C@H](CCSC)NC(=O)[C@H](CCSC)NC(=O)[C@H](CCCCN)NC(=O)[C@@H](N)CCCCN)[C@@H](C)O)[C@@H](C)CC)C(=O)N[C@@H](CCCNC(=N)N)C(=O)O [AMPR-22] (H-KKMMKKGGKFGTFMAIGGIR-OH)
[1]
  MBC Value, Vancomycin-resistant S. aureus: 4 µg/mL (≈ 1.83 µM)
[2]; ATCC 33591, 1 h
  MBC Value, MRSA: 2 µg/mL (≈ 0.915 µM)
[2]; Table 2, ATCC 33591, modified MBC
  MBC Value, Methicillin-resistant S. aureus: 2 µg/mL (≈ 0.915 µM)
[3]; in vivo
  Antibacterial activity maintained 37 min after peptide injection: more than 50%
[3]
  Functional half-life in vivo: around 37 min
[4]
  Cytotoxicity, HeLa cells: slight cytotoxicity
[5]
  MBC Value, CRPA: 4 µg/mL (≈ 1.83 µM)
  MBC Value, Carbapenem-resistant P. aeruginosa: 4 µg/mL (≈ 1.83 µM)
[6]; ATCC 29213, 1 h, pH 7.4
  MBC Value, S. aureus: 2 µg/mL (≈ 0.915 µM)
[6]; Table 2, ATCC 29213, modified MBC
  MBC Value, Staphylococcus aureus: 2 µg/mL (≈ 0.915 µM)
